*1 amine or outer side, *2 acyl side, *3 side chain or, on linkers, in order; H or OH if unused. Where a SMILES comes first, the peptide text is derived from it. [ ]: non-standard residue; d: D form. X1 = CC(C)(O)[C@H](C[C@H](O)[C@H](CC1CCCCC1)N[*:1])C(=O)[*:2]
Target: β-Secretase (Homo sapiens, UniProt P56817)
Details: in-vitro ELISA; βAP produced in presence of β-Secretase and APP versus control without inhibitor
Text: Such assays, which are well known in the art, measure the concentration of βAP produced (by detection of an antibody against the amino terminus of βAP) in the presence of β-Secretase and APP versus control experiments in the absence of inhibitor.

β-Secretase, sequence (P56817 46-501): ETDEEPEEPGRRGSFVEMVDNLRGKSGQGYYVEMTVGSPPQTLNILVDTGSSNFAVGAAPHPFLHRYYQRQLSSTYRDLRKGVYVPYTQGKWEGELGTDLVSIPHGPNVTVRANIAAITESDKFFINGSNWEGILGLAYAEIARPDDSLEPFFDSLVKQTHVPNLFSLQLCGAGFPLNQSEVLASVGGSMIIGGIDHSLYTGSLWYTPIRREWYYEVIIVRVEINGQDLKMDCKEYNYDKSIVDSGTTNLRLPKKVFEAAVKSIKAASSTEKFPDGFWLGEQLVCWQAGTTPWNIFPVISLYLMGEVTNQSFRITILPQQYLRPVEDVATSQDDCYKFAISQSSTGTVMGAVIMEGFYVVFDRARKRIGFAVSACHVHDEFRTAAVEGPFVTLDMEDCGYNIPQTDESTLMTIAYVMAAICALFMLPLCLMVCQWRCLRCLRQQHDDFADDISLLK

For `CC(C)[C@H](NC(=O)[C@@H](N)CCC(=O)O)C(=O)N[C@@H](CC(N)=O)C(=O)N[C@@H](CC1CCCCC1)[C@@H](O)C[C@H](C(=O)N[C@H](C)C(=O)N[C@H](CCC(=O)O)C(=O)N[C@H](Cc1ccccc1)C(=O)O)C(C)(C)O` [compound of formula I] (H-EVN[X1][dA][dE][dF]-OH), the IC50 was 49 nM.
